The values below come from PMC10239758 (European journal of medicinal chemistry, 2023).

Values after ≈ are worked out from the molar mass of the structure shown. Like-named read-outs stand apart in the source and are kept apart here.

The term IC50 denotes the point on the concentration scale where inhibition reaches its midpoint.

One data set deals with Mtb strain H37Rv. Kind of data set: Microplate Alamar Blue assay. The data set is classed as cell-based, Mycobacterium tuberculosis. The following applies: MABA, average of three measurements. On the technique in general: Resazurin is reduced to fluorescent resorufin, in cell work by metabolically active cells.
Data set [1] is described as follows: Human liver microsomal stability. The following applies: human liver microsomes; for Remaining (NCF = 60 min): without the NADPH cofactor. (In general: Liver microsomes are vesicles of endoplasmic reticulum, rich in cytochrome P450 enzymes.)
The test system of another data set is Vero cells. In words: Cytotoxicity against Vero cells. The data set is classed as cell-based, African green monkey. The note with it: Chlorocebus sabaeus, read-out: Vero cells IC50, Vero cells.
The subject of a further data set is Mtb V4207. Kind of data set: microbe, parasite or virus in culture. The data set is classed as cell-based. The note with it: Mycobacterium tuberculosis, V4207, read-out: Mtb MIC V4207/ DS.
The test system of data set [2] is clinically isolated strains of MDR/XDR-TB. In words: microbe, parasite or virus in culture. The data set is classed as cell-based, Mycobacterium tuberculosis.

In the data set on Mtb strain H37Rv, `CC(C)c1ccc(-c2cccc(CN3CC[Si](C)(C)CC3)n2)cc1` [Compound 13, 1-((6-(4-Isopropylphenyl)pyridin-2-yl)methyl)-4,4-dimethyl-1,4-azasilinane] gave an MIC of 4 to 8 µg/mL.

With `CC(C)c1ccc(-c2cc(CN3CC[Si](C)(C)CC3)ccn2)cc1` [Compound 17, 1-((2-(4-Isopropylphenyl)pyridin-4-yl)methyl)-4,4-dimethyl-1,4-azasilinane], in the data set with Mtb strain H37Rv, the MIC was in the range of 4 to 8 µg/mL.

In the data set with Mtb strain H37Rv, `CC(C)c1ccc(-c2cc(CN3CC[Si](C)(C)CC3)ncn2)cc1` [Compound 27, 4-((4,4-Dimethyl-1,4-azasilinan-1-yl)methyl)-6-(4-isopropylphenyl)pyrimidine] had an MIC of 4 to 8 µg/mL.

For `CC(C)c1ccc(-c2ccnc(CN3CCC4(CCCC4)CC3)c2)cc1` [Compound 37, 8-((4-(4-Isopropylphenyl)pyridin-2-yl)methyl)-8-azaspiro[4.5]decane], in data set [1], the “Remaining (NCF = 60 min)” value is recorded as “stable”.

As to `c1ccc(-c2ccc(-c3ccnc(CN4CCC5(CCCC5)CC4)c3)cc2)cc1` [Compound 62, 8-((4-([1,1'-Biphenyl]-4-yl)pyridin-2-yl)methyl)-8-azaspiro[4.5]decane], the half-maximal inhibitory concentration (IC50) with Vero cells was not below 16 µg/mL. Also, the results for the MIC (in the data set on Mtb V4207; in data set [2]; in data set [2] (Mycobacterium tuberculosis)) were 0.0039 µg/mL (≈ 0.0102 µM), 0.0039 to 0.0625 µg/mL and 0.004 to 0.063 µg/mL (≈ 0.0105 to 0.165 µM), respectively. The “Remaining (NCF = 60 min)” value in data set [1] is listed as “stable”.

Consider `c1cc(-c2ccc(-c3ccoc3)cc2)cc(CN2CCC3(CCCC3)CC2)n1` [Compound 68, 8-((4-(4-(Furan-3-yl)phenyl)pyridin-2-yl)methyl)-8-azaspiro[4.5]decane], for which, in data set [1], the “Remaining (NCF = 60 min)” value is listed as “stable”.

With `O=C(O)Cc1ccccc1Nc1c(Cl)cccc1Cl` [Diclofenac, reference compound], the “Remaining (T = 60 min)” value in data set [1] (with NADPH, after 60 min) came to 0.4%. The “Remaining (NCF = 60 min)” value in data set [1] is “stable”.

Turning to `C[C@]12CC[C@H]3[C@@H](CCC4=CC(=O)CC[C@@]43C)[C@@H]1CC[C@@H]2O` [Testosterone, reference compound], in data set [1], the “Remaining (NCF = 60 min)” value is “stable”.
